The results in this text go back to patent publication US10544150B2, “NK-3 receptor selective antagonist compounds, pharmaceutical composition and methods for use in NK-3 receptors mediated disorders” (Ogeda SA, priority 2010, dated 2020).

Chain of human NK-3 receptor (P29371 whole entry): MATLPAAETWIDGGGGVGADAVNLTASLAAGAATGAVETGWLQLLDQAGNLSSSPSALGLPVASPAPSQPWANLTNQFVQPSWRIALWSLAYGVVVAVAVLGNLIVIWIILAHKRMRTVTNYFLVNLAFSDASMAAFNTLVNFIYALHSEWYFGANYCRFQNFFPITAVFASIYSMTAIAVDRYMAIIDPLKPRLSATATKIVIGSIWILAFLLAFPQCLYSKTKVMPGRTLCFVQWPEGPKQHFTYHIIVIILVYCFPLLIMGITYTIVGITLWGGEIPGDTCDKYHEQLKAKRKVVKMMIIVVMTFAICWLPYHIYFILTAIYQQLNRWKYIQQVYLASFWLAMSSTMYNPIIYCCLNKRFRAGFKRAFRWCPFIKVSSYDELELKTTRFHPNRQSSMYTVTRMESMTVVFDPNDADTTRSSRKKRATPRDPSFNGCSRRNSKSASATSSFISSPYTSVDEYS

This test has as its target human NK-3 receptor (Homo sapiens (Human), UniProt P29371). As to the kind of experiment: 3H-SB222200 binding competition assay with human NK-3 receptor. Conditions: 3H-SB222200 displacement, CHO cell membranes expressing human NK3 receptor; read-out: Ki range. Summed up: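 Radioligand displacement: 5 nM tritiated SB222200 competed by varying compound concentrations on recombinant CHO membranes bearing human NK3, buffer pH 7.4 with HEPES, NaCl, CaCl2, MgCl2, BSA and saponin. Filter-bound radioactivity quantified; calculated Ki given as ranges from +++ (<500 nM) to # (>5 μM).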
The Ki is the dissociation constant of the complex between target and ligand, obtained from inhibition or displacement. As for `CC1c2nnc(-c3csc(-c4ccc(F)cc4F)n3)n2CCN1C(=O)c1ccc(F)cc1` (stereo not drawn) [Compound 77, (3-(2-(2,4-difluorophenyl)thiazol-4-yl)-8-methyl-5,6-dihydro-[1,2,4]triazolo[4,3-a]pyrazin-7(8H)-yl)(4-fluorophenyl)methanone], the Ki was < 500 nM.
With `O=C(c1ccc(-c2ccccc2)cc1)N1CCn2c(nnc2-c2csc(N3CCOCC3)n2)C1` [Compound 20, [1,1′-biphenyl]-4-yl(3-(2-morpholinothiazol-4-yl)-5,6-dihydro-[1,2,4]triazolo[4,3-a]pyrazin-7(8H)-yl)methanone], the inhibition constant Ki was < 500 nM.
As to `CC1c2nnc(-c3csc(-c4ccccc4)n3)n2CCN1C(=O)c1ccc(-c2ccsc2)cc1` (stereo not drawn) [Compound 64, (8-methyl-3-(2-phenylthiazol-4-yl)-5,6-dihydro-[1,2,4]triazolo[4,3-a]pyrazin-7(8H)-yl)(4-(thiophen-3-yl)phenyl)methanone], the Ki is < 500 nM.
Regarding `C[C@H]1c2nnc(-c3csc(-c4ccc(F)cc4)n3)n2CCN1C(=O)c1ccc(F)cc1` [Compound 160, (S)-(4-fluorophenyl)(3-(2-(4-fluorophenyl)thiazol-4-yl)-8-methyl-5,6-dihydro-[1,2,4]triazolo[4,3-a]pyrazin-7(8H)-yl)methanone], the Ki fell in the range of 1000 to 5000 nM.
For `O=C(c1ccc(-c2cccs2)cc1)N1CCn2c(nnc2-c2csc(-c3ccccc3O)n2)C1` [Compound 262, (3-(2-(2-hydroxyphenyl)thiazol-4-yl)-5,6-dihydro-[1,2,4]triazolo[4,3-a]pyrazin-7(8H)-yl)(4-(thiophen-2-yl)phenyl)methanone], the Ki was < 500 nM.
For the compound `O=C(c1ccc(-c2ccccc2)cc1)N1CCn2c(nnc2-c2ccccn2)C1` [Compound 6, [1,1′-biphenyl]-4-yl(3-(pyridin-2-yl)-5,6-dihydro-[1,2,4]triazolo[4,3-a]pyrazin-7(8H)-yl)methanone], the Ki is 1000 to 5000 nM.
As for `O=C(c1ccc(-c2cccs2)cc1)N1CCn2c(nnc2-c2csc(-c3cccc(F)c3)n2)C1` [Compound 207, (3-(2-(3-fluorophenyl)thiazol-4-yl)-5,6-dihydro-[1,2,4]triazolo[4,3-a]pyrazin-7(8H)-yl)(4-(thiophen-2-yl)phenyl)methanone], the figure is < 500 nM; as for `O=C(c1ccc(F)cc1)N1CCn2c(nnc2-c2csc(-c3ccccn3)n2)C1` [Compound 230, (4-fluorophenyl)(3-(2-(pyridin-2-yl)thiazol-4-yl)-5,6-dihydro-[1,2,4]triazolo[4,3-a]pyrazin-7(8H)-yl)methanone], 1000 to 5000 nM.
Turning to `O=C(c1ccc(-c2cccs2)cc1)N1CCn2c(nnc2-c2csc(-c3ccc4ccccc4n3)n2)C1` [Compound 219, (3-(2-(quinolin-2-yl)thiazol-4-yl)-5,6-dihydro-[1,2,4]triazolo[4,3-a]pyrazin-7(8H)-yl)(4-(thiophen-2-yl)phenyl)methanone], the Ki is < 500 nM.
As for `O=C(c1ccc(-c2cccs2)cc1)N1CCn2c(nnc2-c2nc(-c3ccc(F)cc3F)no2)C1` [Compound 185, (3-(3-(2,4-difluorophenyl)-1,2,4-oxadiazol-5-yl)-5,6-dihydro-[1,2,4]triazolo[4,3-a]pyrazin-7(8H)-yl)(4-(thiophen-2-yl)phenyl)methanone], the Ki is > 5000 nM.
With `Cc1cccc(-c2nnc3n2CCN(C(=O)c2ccc(-c4cccs4)cc2)C3C)n1` (stereo not drawn) [Compound 287, (8-methyl-3-(6-methylpyridin-2-yl)-5,6-dihydro-[1,2,4]triazolo[4,3-a]pyrazin-7(8H)-yl)(4-(thiophen-2-yl)phenyl)methanone] the figure was < 500 nM.
With `O=C(c1ccc(F)cc1)N1CCn2c(nnc2-c2cc3ccccc3cn2)C1` [Compound 15, (4-fluorophenyl)(3-(isoquinolin-3-yl)-5,6-dihydro-[1,2,4]triazolo[4,3-a]pyrazin-7(8H)-yl)methanone] the figure was 1000 to 5000 nM.
With `O=C(c1cc(-c2ccc(Oc3ccccc3)cc2)n[nH]1)N1CCn2c(nnc2-c2ccccn2)C1` [Compound 18, (3-(4-phenoxyphenyl)-1H-pyrazol-5-yl)(3-(pyridin-2-yl)-5,6-dihydro-[1,2,4]triazolo[4,3-a]pyrazin-7(8H)-yl)methanone] the figure was 1000 to 5000 nM.
Turning to `O=C(c1ccccc1-c1ccccc1)N1CCn2c(nnc2-c2ccc3ccccc3n2)C1` [Compound 96, [1,1′-biphenyl]-2-yl(3-(quinolin-2-yl)-5,6-dihydro-[1,2,4]triazolo[4,3-a]pyrazin-7(8H)-yl)methanone], the Ki is > 5000 nM.
As for `O=C(c1ccc(Cl)c(Cl)c1)N1CCn2c(nnc2-c2ccccn2)C1` [Compound 5, (3,4-dichlorophenyl)(3-(pyridin-2-yl)-5,6-dihydro-[1,2,4]triazolo[4,3-a]pyrazin-7(8H)-yl)methanone], the figure is 1000 to 5000 nM; as for `Cc1sccc1-c1ccc(C(=O)N2CCn3c(-c4csc(-c5ccc(F)cc5)n4)nnc3[C@@H]2C)cc1` [Compound 233, (S)-(3-(2-(4-fluorophenyl)thiazol-4-yl)-8-methyl-5,6-dihydro-[1,2,4]triazolo[4,3-a]pyrazin-7(8H)-yl)(4-(2-methylthiophen-3-yl)phenyl)methanone], < 500 nM; as for `CC1c2nnc(-c3csc(-c4ccc(F)cc4F)n3)n2CCN1C(=O)c1ccc(-c2ccccc2)cc1` (stereo not drawn) [Compound 79, [1,1′-biphenyl]-4-yl(3-(2-(2,4-difluorophenyl)thiazol-4-yl)-8-methyl-5,6-dihydro-[1,2,4]triazolo[4,3-a]pyrazin-7(8H)-yl)methanone], < 500 nM.
Take `O=C(c1ccc(F)cc1)N1CCn2c(nnc2-c2nc3c(s2)CCCC3)C1` [Compound 27, (4-fluorophenyl)(3-(4,5,6,7-tetrahydrobenzo[d]thiazol-2-yl)-5,6-dihydro-[1,2,4]triazolo[4,3-a]pyrazin-7(8H)-yl)methanone]: the Ki is < 500 nM.
As for `C[C@H]1c2nnc(-c3csc(-c4ccc(F)cc4)n3)n2CCN1C(=O)c1ccc(F)cc1` [Compound 164, (S)-(4-fluorophenyl)(3-(2-(4-fluorophenyl)thiazol-4-yl)-8-methyl-5,6-dihydro-[1,2,4]triazolo[4,3-a]pyrazin-7(8H)-yl)methanone], the figure is < 500 nM; as for `O=C(c1ccc(-c2ccc(F)cc2)cc1)N1CCn2c(nnc2-c2csc(Cn3cnc(Cl)c3Cl)n2)C1` [Compound 187, (3-(2-((4,5-dichloro-1H-imidazol-1-yl)methyl)thiazol-4-yl)-5,6-dihydro-[1,2,4]triazolo[4,3-a]pyrazin-7(8H)-yl)(4′-fluoro-[1,1′-biphenyl]-4-yl)methanone], 1000 to 5000 nM.
For the compound `O=C(c1ccc(-c2cccs2)cc1)N1CCn2c(nnc2-c2csc(-c3ccccc3F)n2)C1` [Compound 181, (3-(2-(2-fluorophenyl)thiazol-4-yl)-5,6-dihydro-[1,2,4]triazolo[4,3-a]pyrazin-7(8H)-yl)(4-(thiophen-2-yl)phenyl)methanone], the Ki was < 500 nM.
In the case of `C[C@@H]1c2nnc(-c3nc(-c4ccc(F)cc4)no3)n2CCN1C(=O)c1ccc(-c2cccs2)cc1` [Compound 169, (R)-(3-(3-(4-fluorophenyl)-1,2,4-oxadiazol-5-yl)-8-methyl-5,6-dihydro-[1,2,4]triazolo[4,3-a]pyrazin-7(8H)-yl)(4-(thiophen-2-yl)phenyl)methanone], the Ki is < 500 nM.
Turning to `O=C(c1ccc(-c2cccs2)cc1)N1CCn2c(nnc2-c2csc(-c3ccccc3OCCO)n2)C1` [Compound 281, (3-(2-(2-(2-hydroxyethoxy)phenyl)thiazol-4-yl)-5,6-dihydro-[1,2,4]triazolo[4,3-a]pyrazin-7(8H)-yl)(4-(thiophen-2-yl)phenyl)methanone], the Ki is < 500 nM.
As for `CC1c2nnc(-c3coc(-c4ccccc4)n3)n2CCN1C(=O)c1ccc(F)cc1` (stereo not drawn) [Compound 48, (4-fluorophenyl)(8-methyl-3-(2-phenyloxazol-4-yl)-5,6-dihydro-[1,2,4]triazolo[4,3-a]pyrazin-7(8H)-yl)methanone], the figure is < 500 nM.
As for `O=C(c1ccc(-c2cccs2)cc1)N1CCn2c(nnc2-c2ccccn2)C1` [Compound 21, (3-(pyridin-2-yl)-5,6-dihydro-[1,2,4]triazolo[4,3-a]pyrazin-7(8H)-yl)(4-(thiophen-2-yl)phenyl)methanone], the figure is < 500 nM; as for `NCCOc1ccccc1-c1nc(-c2nnc3n2CCN(C(=O)c2ccc(-c4cccs4)cc2)C3)cs1` [Compound 282, (3-(2-(2-(2-aminoethoxy)phenyl)thiazol-4-yl)-5,6-dihydro-[1,2,4]triazolo[4,3-a]pyrazin-7(8H)-yl)(4-(thiophen-2-yl)phenyl)methanone], 500 to 1000 nM; as for `Cc1cccc(-c2nnc3n2CCN(C(=O)c2ccc(F)cc2)C3)n1` [Compound 11, (4-fluorophenyl)(3-(6-methylpyridin-2-yl)-5,6-dihydro-[1,2,4]triazolo[4,3-a]pyrazin-7(8H)-yl)methanone], < 500 nM.
With `CC1(C)CN(c2nc(-c3nnc4n3CCN(C(=O)c3ccc(-c5cccs5)cc3)C4)cs2)CCO1` [Compound 266, (3-(2-(2,2-dimethylmorpholino)thiazol-4-yl)-5,6-dihydro-[1,2,4]triazolo[4,3-a]pyrazin-7(8H)-yl)(4-(thiophen-2-yl)phenyl)methanone] the figure was < 500 nM.
Take `CN1CCN(c2ccc(-c3nc(-c4nnc5n4CCN(C(=O)c4ccc(-c6cccs6)cc4)C5)cs3)cc2)CC1` [Compound 241, (3-(2-(4-(4-methylpiperazin-1-yl)phenyl)thiazol-4-yl)-5,6-dihydro-[1,2,4]triazolo[4,3-a]pyrazin-7(8H)-yl)(4-(thiophen-2-yl)phenyl)methanone]: the inhibition constant (Ki) is < 500 nM.
With `O=C(c1ccc(-c2cccs2)cc1)N1CCn2c(nnc2-c2n[nH]c(-c3ccccc3)n2)C1` [Compound 179, (3-(5-phenyl-1H-1,2,4-triazol-3-yl)-5,6-dihydro-[1,2,4]triazolo[4,3-a]pyrazin-7(8H)-yl)(4-(thiophen-2-yl)phenyl)methanone] the figure was < 500 nM.
